What was measured:
A549 (lung cancer cells) = experiment: In vitro cytotoxic activity, MTT assay, A549; assay type: cell-based, human; settings: 24 h incubation with complex, mean ± standard deviation
Protocol: (§1) To examine the possible anticancer effect of complexes 1, 2, and cisplatin, a panel of three human tumor cell lines, A549 (lung cancer cells), MCF7 (breast cancer cells) and HCT15 (colon cancer cells) was used. The different human carcinoma cell cultures (A549, MCF7, HCT15) were first seeded at the concentration of 2×10^4 cells per mL in their respective growth mediums containing 10% FBS (fetal bovine serum) in a 96-well tissue culture plate and were incubated for 72 h at 37° C., 5% CO2 in air and 90% relative humidity in a CO2 incubator. After that the cell cultures were incubated for 24 h with 100 μL of cisplatin and the complexes (1-3) having 100, 50, 25 and 12.5 μM concentrations, prepared in growth medium. Further, the cultures were incubated with 100 μL of vital mitochondrial tetrazolium dye (3-(4,5-dimethylthiazol-2-yl)-2,5-diphenyltetrazolium bromide) (0.5 mg/ml) in a CO2 incubator at 37° C. in the dark for 4 h. After incubation, purple colored formazan crystals were formed due to the reduction of dye by mitochondrial succinate dehydrogenase enzyme. The resultant crystals were solublized by adding 100 μL of dimethylsulfoxide (DMSO). The colored solution formed was thoroughly mixed and read spectrophotometrically at 570 nm with Lab systems Multiskan EX-Enzyme-linked immunosorbent assay (EX-ELISA) reader against a reagent blank. All data presented are mean±standard deviation.
(§2) The anticancer activity of complexes 1-3 as well as cisplatin was evaluated against a panel of representative human tumor cell lines, which include, lung cancer cells (A549), breast cancer cells (MCF7) and colon cancer cells (HCT15). The results of in vitro cytotoxic activity are expressed as IC50 (concentration causing 50% reduction in cell viability) and are presented in Table 4. […] For 1, the IC50 values are closer to cisplatin. In going from 1 to 2, the substitution of two chlorine atoms by the chelating diamine ligand brought about a 1.5-3 times decrease in the antiproliferative activity of 2.

[1] = tested on: HCT15 (colon cancer cells); experiment: In vitro cytotoxic activity, MTT assay, HCT15; assay type: cell-based, human; settings: 24 h incubation with complex, mean ± standard deviation
Protocol: as §1, §2

[2] = tested on: MCF7 (breast cancer cells); experiment: In vitro cytotoxic activity, MTT assay, MCF7; assay type: cell-based, human; settings: 24 h incubation with complex, mean ± standard deviation
Protocol: as §1, §2

Lysozyme protein = molecular target: T1, Lysozyme protein (Gallus gallus, UniProt P00698); experiment: Interaction with lysozyme by cyclic voltammetry; set-up: species or system chicken; settings: 0.2 mM complex
T1 construct: the Lysozyme protein attained from chicken egg white; purchased Sigma-Aldrich; host or cells: chicken egg white (natural source)
Protocol: (§3) The voltammetric measurements were performed by using three electrode based Auto Lab electrochemical workstation (Netherland). The working electrode was glassy carbon electrode (GCE), while Ag/AgCl and platinum were used as reference counter electrodes respectively. The weights of the chemicals were measured by using GR-2000 electrical balance. The pH of the buffer was controlled by Accumet® XL50 pH meter. For electrochemical analysis, the compounds 1 and 2 were dissolved in the ethanol as their solubility was very poor in aqueous medium. Prior to each analysis, the GCE was polished as a mirror like surface with alumina slurry on the synthetic clothe. The cyclic voltammograms for various analyses were recorded from 0.0 V to +1.3 V with a scan rate of 0.1 V/s. Electrochemical behavior may be studied using the methods described by Al-Jaroudi et al. and Seliman et al. (incorporated by reference) and well known model proteins. See S. S. Al-Jaroudi, M. Altaf, A. Al-Saadi, A.-N. Kawde, S. Altuwaijri, S. Ahmad and A. A. Isab, Biometals, 2015, 28, 827-844; and A. Seliman, M. Altaf, A. Kawde, M. Wazeer and A. Isab, J. Coord. Chem., 2014, 67, 3431-3443, each incorporated herein by reference in their entirety.
Moreover, the interaction of these compounds was also explored with the Lysozyme protein attained from chicken egg white.

[3] = Solubility in aqueous medium; assay type: physicochemical
[4] = Cyclic voltammetry of the complexes at glassy carbon electrode; assay type: physicochemical; settings: cyclic voltammetric measurements
Protocol: as §3, with “See S. S. Al-Jaroudi, M. Altaf, A. Al-Saadi, A.-N. Kawde, S. Altuwaijri, S. Ahmad and A. A. Isab, Biometals, 2015, 28, 827-844; and A. Seliman, M. Altaf, A. Kawde, M. Wazeer and A. Isab, J. Coord. Chem., 2014, 67, 3431-3443, each incorporated herein by reference in their entirety.” left out
To get an insight into the reactivity of the complexes, the interactions of complexes 1 and 2 with model proteins, L-tyrosine, glutathione and lysozyme were studied electrochemically. The electrochemical behavior of complexes 1 and 2 in the presence of the proteins was analyzed by cyclic voltammetric technique (CV). […]

[5] = tested on: A549, MCF7 and HCT15 cells; experiment: In vitro cytotoxic activity, statements on the whole panel of three tumor cell lines; assay type: cell-based, human
Protocol: as §1, with “After incubation, purple colored formazan crystals were formed due to the reduction of dye by mitochondrial succinate dehydrogenase enzyme. The resultant crystals were solublized by adding 100 μL of dimethylsulfoxide (DMSO).” left out, “All data presented are mean±standard deviation.” left out
The anticancer activity of complexes 1-3 as well as cisplatin was evaluated against a panel of representative human tumor cell lines, which include, lung cancer cells (A549), breast cancer cells (MCF7) and colon cancer cells (HCT15). […]

T1 sequence (P00698 19-147): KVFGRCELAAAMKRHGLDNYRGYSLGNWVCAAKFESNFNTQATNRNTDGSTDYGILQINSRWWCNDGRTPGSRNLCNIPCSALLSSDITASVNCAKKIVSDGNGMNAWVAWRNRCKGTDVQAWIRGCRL

Row | Molecule | IC50 (A549 (lung cancer cells)) | IC50 [1] | IC50 [2] | effect of successive addition of Lysozyme on the complex peaks (Lysozyme protein) | interaction with Lysozyme (comparison) (Lysozyme protein) | solubility in aqueous medium [3] | stability of gold(III) center during reaction with L-tyrosine, glutathione and lysozyme [4] | antiproliferative potency, rank among the complexes ([5]; A549, MCF7, HCT15) | decrease in the antiproliferative activity in going from 1 to 2 ([5]; 2 compared with 1, three cell lines)
1 | N.N.[Cl][Pt][Cl] [Cisplatin, cisplatin, reference compound] | 42.9 ± 1.99 µM | 23.1 ± 3.78 µM | 23.1 ± 3.78 µM |  |  |  |  |  | 
2 | NC(c1cccc2ccccc12)C(N)c1cccc2ccccc12.O.O.[Au+3].[Cl-].[Cl-].[Cl-] (stereo not drawn) [Complex 1, [Au(npen)Cl2]Cl.2H2O] | 28.8 ± 4.02 µM | 9.4 ± 1.93 µM | 11.8 ± 2.6 µM | decrease in the current intensities of the complex peaks | more significant | very poor | remained stable | least active | 
3 | [Au(npen)2]Cl3 [Complex 2] | 10.3 ± 2.82 µM | 4.23 ± 1.31 µM | 7.77 ± 1.82 µM | decrease in the current intensities of the complex peaks |  | very poor | remained stable |  | 1.5-3 times

Reference: patent publication US10160773B2, “Method for inducing cytotoxicity in cancer cells” (King Fahd University of Petroleum and Minerals, priority 2016, dated 2018)
